Measurements published in patent publication US8445005B2, “Antiwrinkle agent, lipolysis promoter, external composition for skin and food and beverage composition” (Kao Corporation, priority 2004, dated 2013).

Legend:
Mouse 3T3-L1 cells = assay: Lipolysis promoting effect: glycerol release from mature adipocytes; format: cell-based; details: test concentration 0.10% by mass; 90 minutes; norepinephrine 3×10^−8 mol/L; control = 100
Description: Mouse 3T3-L1 cells purchased from Dainippon Pharmaceutical Co., Ltd. were cultured in a 24-well culture plate according to the method of […], et al. ([…]. et al., Biochim. Biophys. Acta., 1581: 36-48 (2002)) at 37° C. in a 5% (v/v) CO2 atmosphere, and these cells were used in the test as mature adipocytes. Test media were prepared by adding test samples at predetermined concentrations to DMEM medium containing bovine serum albumin and norepinephrine (final concentration: 3×10^-8 mol/L). The said mature adipocytes were cultured in the test media for 90 minutes to be reacted with the test samples. Following the reaction, the glycerol released into the media was quantified by […] using the F Kit Glycerol (Roche). The lipolysis promotion rate was calculated according to the equation below based on the quantified glycerol values to serve as an indicator of lipolysis promoting effect: Lipolysis promotion rate(%)=[A/B]×100 (wherein A represents the amount of glycerol with addition of test sample, and B represents the amount of glycerol of a control (without addition of test sample)). (Test Results) […] Zingerone and caffeine were used as comparative controls.

photoaged skin = assay: Wrinkle ameliorative effect: wrinkle score in photo-aged hairless mice; format: in vivo; details: Results 1; 1.0% sample in 50% aqueous ethanol, 0.1 ml once a day, five times a week on dorsal skin; score 0-3; base only 2.65 ± 0.08; listed as Example 2
Description: Samples containing 1.0% each of the guinea ginger extract, paradol or acetylated guinea ginger extract obtained in Production Examples 1 to 3 were prepared, using a 50% aqueous ethanol solution for the base (Example 1, 2 or 3, respectively), and wrinkle ameliorative effects on photoaged skin were investigated using the test method described below. Hairless mice, 10 weeks old at the start of the test, were used in groups of 10 animals each. Photo-aging was induced by irradiating skin with UVA and UVB once a day, five times a week for eight weeks. The irradiated doses were 20, 25 and 30 J/cm^2 for UVA and 20, 30 and 40 mJ/cm^2 for UVB. The doses were elevated every week, and the skin was irradiated at the maximum doses after the third week. Wrinkle ameliorative effect was evaluated using a wrinkle score and a dermal collagen level. The wrinkle score was determined according to the method of Bissett, et al. (Photochem. Photobiol., 46: 367-378, 1987). Namely, the size and depth of wrinkles were comprehensively evaluated macroscopically, and evaluated according to one of four levels consisting of a score of 3 for “large, deep wrinkles able to be confirmed”, 2 for “wrinkles able to be confirmed”, 1 for “wrinkles unable to be confirmed” and 0 for “normal skin texture observed”. […] Wrinkle scores were then determined following completion of the final application. […]

SMILES | Lipolysis promotion rate (%) (mean ± SE) (Mouse 3T3-L1 cells) | Wrinkle Score (mean ± SE) (photoaged skin)
Cn1c(=O)c2c(ncn2C)n(C)c1=O [Caffeine] | 234.93 ± 11.23% | 
CCCCCCCC(=O)CCc1ccc(O)c(OC)c1 [Paradol, 1-(4′-hydroxy-3′-methoxyphenyl)-3-decanone] | 554.68 ± 107.62% | 2.40 ± 0.23
COc1cc(CCC(C)=O)ccc1O [Zingerone] | 191.85 ± 69.83% | 
